From US20120010206A1, “IMIDAZOLOPYRIDINE COMPOUNDS USEFUL FOR THE TREATMENT OF DEGENERATIVE AND INFLAMMATORY DISEASES” (priority 2006, published 2012)

What was measured:
TAK1-TAB1 fusion protein = molecular target: T1, TAK1-TAB1 fusion protein (Homo sapiens, UniProt O43318); assay: In vitro TAK1 kinase assay (33P-ATP, casein substrate); assay type: biochemical; details: semi-quantitative score, at least two independent experiments
T1 construct: purchased Upstate 14-600
T1 sequence (O43318 with tags, fused parts or gaps limits assumed): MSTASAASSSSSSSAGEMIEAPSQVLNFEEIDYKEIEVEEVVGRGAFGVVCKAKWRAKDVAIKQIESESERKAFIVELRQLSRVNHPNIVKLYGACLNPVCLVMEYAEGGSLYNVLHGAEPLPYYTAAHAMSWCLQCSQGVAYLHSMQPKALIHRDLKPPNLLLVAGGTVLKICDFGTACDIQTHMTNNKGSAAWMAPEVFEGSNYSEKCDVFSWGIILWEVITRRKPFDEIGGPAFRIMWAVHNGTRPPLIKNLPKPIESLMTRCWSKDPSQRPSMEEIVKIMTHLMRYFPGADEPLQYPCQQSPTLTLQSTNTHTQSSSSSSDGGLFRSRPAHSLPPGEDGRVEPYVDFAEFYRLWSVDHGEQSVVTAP
Method: For assessing TAK1 inhibition, active TAK1-TAB1 fusion protein was used from Upstate (Cat. No, 14-600). Kinase reactions are set up in 96-well polypropylene plates in 25 μL containing 0.5 mU TAK1-TAB1 fusion protein, […], 0.01 μCi/μL [^33P]-γ-ATP, 0.1 mg/mL casein substrate in 1× reaction buffer containing 10 mM MOPS pH 7.0, 1 mM EDTA.
Starting from the compound master stocks (all at 10 mM concentration in 100% DMSO) a 3-fold serial dilution is made in 96-well plates in 100% DMSO. Plates are further diluted […] in H2O containing 3.5% DMSO, to obtain an intermediate work stock with compounds at 5× the final assay concentration in 5% DMSO.
5 μL of the intermediate stock is transferred into V-bottom 96 well polypropylene plates and 11 μL of Enzyme mix is added. Enzyme mix is made by combining 5 μL 5× reaction buffer ([…] pH 7.0, 1 mM EDTA), 5 μL casein (Sigma) diluted in H2O to 0.5 mg/mL and 1 μL of TAK1-TAB1 fusion protein that was prediluted to 0.5 mU/μL in 1× enzyme dilution buffer (20 mM MOPS pH 7.0, 0.1 mM EDTA, 0.01% Brij-35, 5% glycerol, 1 mM DTT, 1 mg/ml BSA).
The reactions are started by the addition of 9 μL of mixture containing ATP (20.83 uM) and [^33P]-γ-ATP (0.028 μCi/μL).
The assay is stopped 90 minutes after incubation at 30° C. by the addition of 25 μL phosphoric acid (150 mM). The label incorporated into the casein substrate is separated from labeled unincorporated ATP by filtration onto 96-well filter plates using a harvester device. After 6 washes with 75 mM phosphoric acid, the bottom of the filter plates are sealed, and incorporated label is quantified after addition of 40 μL scintillation fluid using TopCount.
Based on these percent inhibition data obtained in at least two independent experiments for the compounds, compounds are ranked using semi-quantitative scores. Table A below lists a number of compounds which have been or can be prepared according to the synthetic methods described herein. Semi-quantitative score: • *>3001 nM • ** 1001-3000 nM • *** 101-1000 nM • ****<100 nM

[1] = test system: MMP1 expression from activated SFs (RASF); assay: MMP assay: MMP1 expression (ELISA) by TNF-α-triggered RASFs; assay type: cell-based; details: RASF triggered with TNFα, MMP1 ELISA after 48 hrs, semi-quantitative score
Method: A 384-well format ELISA for measurement of MMP1 is developed. Various primary antibodies are tested, as well as various ELISA protocols. The following protocol is developed and validated to measure MMP1 levels in SF supernatant in 384 well plates: white Lumitrac 600 384 well plates (Greiner) are coated with 2 μg/mL anti-MMP1 antibody MAB1346 (Chemicon). The antibody is diluted in buffer 40 (1.21 g Tris base (Sigma), 0.58 g NaCl (Calbiochem) and 5 mL 10% NaN3 (Sigma) in 1 L milliQ water and adjusted to pH 8.5). After overnight incubation at 4° C., plates are washed with PBS (80 g NaCl, 2 g KCl (Sigma), 11.5 g Na2HPO4.7H2O and 2 g KH2PO4 in 10 L milliQ; pH 7.4) and blocked with 100 μL/well Casein buffer (2% Casein (VWR International) in PBS). Next day, casein buffer is removed from ELISA plates and replaced by 50 μL/well EC buffer (4 g casein, 2.13 g Na2HPO4 (Sigma), 2 g bovine albumin (Sigma), 0.69 g NaH2PO4.H2O (Sigma), 0.5 g CHAPS (Roche), 23.3 g NaCl, 4 mL 0.5 M EDTA pH 8 (Invitrogen), 5 mL 10% NaN3 in 1 L milliQ and adjusted to pH 7.0). 0.25 mM DTT (Sigma) is added to the thawed sample plates. After removal of the EC buffer, 20 μL of sample is transferred to the ELISA plates. After overnight incubation at 4° C. plates are washed twice with PBS and once with PBST (PBS with 0.05% Tween-20 (Sigma)) and incubated with 35 μL/well biotinylated anti-MMP1 antibody solution (R&D). This secondary antibody is diluted in buffer C (0.82 g NaH2PO4.H2O, 4.82 g Na2HPO4, 46.6 g NaCl, 20 g bovine albumin and 4 ml, 0.5M EDTA pH 8 in 2 L milliQ and adjusted to pH 7.0) at a concentration of 5 μg/mL. After 2 h of incubation at RT, plates are washed as described above and incubated with 50 μL/well streptavidin-HRP conjugate (Biosource). Streptavidin-HRP conjugate is diluted in buffer C at a concentration of 0.25 μg/mL. After 45 min, plates are washed as described above and incubated for 5 min with 50 μL/well BM Chem ELISA Substrate (Roche). Readout is performed on the Luminoscan Ascent Luminometer (Labsystems) with an integration time of 200 msec or with an Envision reader (Perkin Elmer).
SFs were acquired at passage 1 from a commercial supplier (Cell applications, Inc.). SFs are cultured in DMEM supplemented with 10% heat-inactivated FBS, 1× penicillin/streptomycin (Invitrogen) at 37° C., 10% CO2 until passage 6. Aliquots of the cells are frozen and cryopreserved in liquid nitrogen. Starting from a cryopreserved aliquot, cells are further expanded by sub-culturing cells at 1/3 ratio every week. Cells between passage 10 and 12 are routinely used in compound testing according to the following protocol.
Starting from the compound master stocks (all at 10 mM concentration in 100% DMSO) a 3-fold serial dilution is made in 96-well plates in 100% DMSO. Then, plates are further diluted 45-fold in M199 medium supplemented with 1% heat-inactivated FBS to obtain a intermediate work stock.
At day 1, RASFs are seeded in 96 well plates (flat bottom, tissue culture treated, Greiner) at a density of 3000 cells/well in complete synovial growth medium (Cell Applications). Day 5, the medium is completely removed from the cells, and replaced by 81 μL of M199 medium supplemented with 1% heat-inactivated FBS followed by addition of 10 μL compound out of the intermediate work stock. After an incubation period of 90 minutes, which allows the compounds to equilibrate and enter the cells, cells are stimulated with either TNF-α or ‘complex trigger’. TNF-α trigger is added in a volume of […] to obtain final concentration of 10 ng/mL. For that, TNF-α stock (PeproTech) at 10 μg/mL was diluted to 100 ng/mL TNF-α in M199 medium supplemented with 1% FBS. ‘Complex trigger’ mix is added in a volume of 20 μL to obtain a final concentration of 12.5%. For that, ‘complex trigger’ mix, is diluted to 80% with M199 medium supplemented with 1% FBS. […]

Row | IC50 (TAK1-TAB1 fusion protein) [nM] | EC50 [1] [nM] | SMILES
1 | 101 to 1000 | 101 to 1000 | CN(C)S(=O)(=O)c1ccc(Nc2ccc(-c3ccc4c(c3)CNC4=O)n3ccnc23)cc1 [Compound 20, N,N-dimethyl-4-(5-(1-oxoisoindolin-5-yl)imidazo[1,2-a]pyridin-8-ylamino)benzene sulfonamide]
2 | < 100 | > 3000 | CCN(CC)CCNC(=O)c1ccc(Nc2ccc(-c3ccc4c(c3)CNC4=O)n3ccnc23)cc1 [Compound 23, N-(2-(diethylamino)ethyl)-4-(5-(1-oxoisoindolin-5-yl)imidazo[1,2-a]pyridin-8-ylamino) benzamide]
3 | 101 to 1000 | 1000 to 3000 | CN(C)c1ccc(CNS(=O)(=O)c2ccc(Nc3ccc(-c4ccc5c(c4)CNC5=O)n4ccnc34)cc2)cc1 [Compound 25, N-(4-(dimethylamino)benzyl)-4-(5-(1-oxoisoindolin-5-yl)imidazo[1,2-a]pyridin-8-ylamino)benzene sulfonamide]
4 | 101 to 1000 | 101 to 1000 | CN(C)c1ccc(CNC(=O)c2ccc(Nc3ccc(-c4ccc5c(c4)CNC5=O)n4ccnc34)cc2)cc1 [Compound 33]
5 | < 100 | > 3000 | O=C(NCCN1CCCC1)c1ccc(Nc2ccc(-c3ccc4c(c3)CNC4=O)n3ccnc23)cc1 [Compound 34, 4-(5-(1-oxoisoindolin-5-yl)imidazo[1,2-a]pyridin-8-ylamino)-N-(2-(pyrrolidin-1-yl)ethyl)benzamide]
6 | 101 to 1000 | > 3000 | CN(C)CCNC(=O)c1ccc(Nc2ccc(-c3ccc4c(c3)CNC4=O)n3ccnc23)cc1 [Compound 36, N-(2-(dimethylamino)ethyl)-4-(5-(1-oxoisoindolin-5-yl)imidazo[1,2-a]pyridin-8-ylamino)benzamide]

More lines, now with the values behind:

Row | SMILES | IC50 (TAK1-TAB1 fusion protein) [nM] | EC50 [1] [nM]
7 | CS(=O)(=O)c1ccc(Nc2ccc(-c3ccc4c(c3)CNC4=O)n3ccnc23)cc1 [Compound 18, 5-(8-(4-(methylsulfonyl)phenylamino)imi-dazo[1,2-a]pyridin-5-yl)isoindolin-1-one] | 101 to 1000 | > 3000
8 | CC(C)N1CCC(c2ccc(Nc3ccc(-c4ccc5c(c4)CNC5=O)n4ccnc34)cc2)CC1 [Compound 19, 5-(8-(4-(1-isopropyl-piperidin-4-yl)phenylamino)imidazo[1,2-a]pyridin-5-yl)isoindolin-1-one] | < 100 | 101 to 1000
9 | O=C1NCc2cc(-c3ccc(Nc4ccc(S(=O)(=O)c5ccccc5)cc4)c4nccn34)ccc21 [Compound 21, 5-(8-(4-(phenylsulfonyl)phenylamino)imi-dazo[1,2-a]pyridin-5-yl)isoindolin-1-one] | 101 to 1000 | 101 to 1000
10 | CCN(CC)CCNS(=O)(=O)c1ccc(Nc2ccc(-c3ccc4c(c3)CNC4=O)n3ccnc23)cc1 [Compound 22, N-(2-(diethylamino)ethyl)-4-(5-(1-oxoisoindolin-5-yl)imidazo[1,2-a]pyridin-8-ylamino)benzene sulfonamide] | 101 to 1000 | 1000 to 3000
11 | CNS(=O)(=O)c1ccc(Nc2ccc(-c3ccc4c(c3)CNC4=O)n3ccnc23)cc1 [Compound 24, N-methyl-4-(5-(1-oxoisoindolin-5-yl)imidazo[1,2-a]pyridin-8-ylamino)benzene sulfonamide] | 101 to 1000 | 1000 to 3000
12 | CC(C)N1CCN(c2ccc(Nc3ccc(-c4ccc5c(c4)CNC5=O)n4ccnc34)cc2F)CC1 [Compound 26, 5-(8-(3-fluoro-4-(4-isopropyl-piperazin-1-yl)phenylamino)imidazo[1,2-a]pyridin-5-yl)isoindolin-1-one] | < 100 | > 3000
13 | CC(C)N1CCN(c2ccc(Nc3ccc(-c4ccc5c(c4)CNC5=O)n4ccnc34)cc2C(F)(F)F)CC1 [Compound 27, 5-(8-(4-(4-isopropylpiperazin-1-yl)-3-(trifluoromethyl)phenylamino)imi-dazo[1,2-a]pyridin-5-yl)isoindolin-1-one] | 101 to 1000 | > 3000
14 | CCN1CCN(c2ccc(Nc3ccc(-c4ccc5c(c4)CNC5=O)n4ccnc34)cc2Cl)CC1 [Compound 28, 5-(8-(3-chloro-4-(4-ethylpiperazin-1-yl)phenylamino)imidazo[1,2-a]pyridin-5-yl)isoindolin-1-one] | 101 to 1000 | > 3000
15 | CC(C)N1CCN(c2ccc(Nc3ccc(-c4ccc5c(c4)CNC5=O)n4ccnc34)cc2Cl)CC1 [Compound 29, 5-(8-(3-chloro-4-(4-isopropyl-piperazin-1-yl)phenylamino)imidazo[1,2-a]pyridin-5-yl)isoindolin-1-one] | 101 to 1000 | > 3000
16 | O=C1NCc2cc(-c3ccc(Nc4ccc(S(=O)(=O)NC5CCNC5)cc4)c4nccn34)ccc21 (centres unmarked) [Compound 32, 4-(5-(1-oxoisoindolin-5-yl)imidazo[1,2-a]pyridin-8-ylamino)-N-(pyrrolidin-3-yl)benzene sulfonamide] | 101 to 1000 | > 3000
